Results from patent publication US4599331A, “Etianic acids as antiangiogenics” (Syntex (U.S.A.) Inc., priority 1984, dated 1986).

Assays:
glucocorticoid receptor = target: T1, glucocorticoid receptor (Rattus norvegicus, UniProt P06536); assay: competition for 3H-dexamethasone binding sites in HTC cytosol (glucocorticoid receptor affinity); conditions: Table 1; displacement of 25 nM 3H-DEX, HTC (rat hepatoma) cytosol, 3 hours on ice
T1 construct: endogenous in cells; host or cells: HTC (rat hepatoma) cells, 100,000 x g cytosol
T1 sequence (P06536 1-795): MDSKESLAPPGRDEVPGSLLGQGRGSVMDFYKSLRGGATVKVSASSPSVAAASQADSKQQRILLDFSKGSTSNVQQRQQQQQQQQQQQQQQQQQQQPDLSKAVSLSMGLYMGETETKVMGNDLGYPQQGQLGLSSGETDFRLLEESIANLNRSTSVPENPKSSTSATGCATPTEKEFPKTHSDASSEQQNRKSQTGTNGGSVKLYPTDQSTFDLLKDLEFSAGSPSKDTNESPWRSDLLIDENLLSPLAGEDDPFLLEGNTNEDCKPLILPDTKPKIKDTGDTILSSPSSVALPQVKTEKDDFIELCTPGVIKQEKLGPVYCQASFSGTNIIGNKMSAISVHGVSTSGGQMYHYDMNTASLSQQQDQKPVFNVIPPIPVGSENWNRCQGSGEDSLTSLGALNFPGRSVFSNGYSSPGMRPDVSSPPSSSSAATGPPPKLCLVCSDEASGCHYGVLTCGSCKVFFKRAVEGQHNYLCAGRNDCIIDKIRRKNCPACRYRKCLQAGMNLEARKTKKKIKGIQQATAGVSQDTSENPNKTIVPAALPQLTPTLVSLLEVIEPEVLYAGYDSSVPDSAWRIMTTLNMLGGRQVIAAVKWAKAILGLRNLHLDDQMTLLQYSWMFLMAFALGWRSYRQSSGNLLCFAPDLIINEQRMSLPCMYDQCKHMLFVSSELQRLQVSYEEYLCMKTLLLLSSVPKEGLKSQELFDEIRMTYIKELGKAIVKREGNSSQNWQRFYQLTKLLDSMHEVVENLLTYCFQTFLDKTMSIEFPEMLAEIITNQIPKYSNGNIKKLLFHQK
Experimental: LE II (mouse lung capillary endothelial) or HTC (rat hepatoma) cells were grown in Dulbecco's modified Eagle's (DMEM) medium plus 10% fetal calf serum (FCS), in 150 cm^2 T-flasks. Approximately 20 flasks of LE II cells or 10 flasks of HTC cells were needed for a 60-80 sample assay.
Cell monolayers were washed 3 times with Phosphate Buffered Saline (PBS) and harvested by scraping with a rubber policeman into an ice-cold sonication buffer of 0.25M sucrose; 10 mM Tris-HCl, pH 7.4; 5 mM ethylenediaminetetraacetic acid (EDTA); 5 mM dithiothereitol; and 10 mM sodium molybdate. All subsequent steps were performed at 4° C. The cells were pooled into a final volume of 8-12 mls, broken by sonication for 45 seconds with the microtip of a Branson sonifier at setting #3 and the residue was then centrifuged at 100,000 X g for 30 minutes with a Beckman L8-50, Ti50 rotor, at 40,000 rpm. […] Incubations were peformed in a final volume of 1 ml in 1.5 ml Eppendorf centrifuge tubes for 3 hours on ice.
Fine Sephadex G-50 gel was swollen and equilibrated against column buffer of 100 mM Tris-HCl, pH 7.8; and 3 mM CaCl2. Columns were poured to a final packed volume of 4.5 ml in 5 ml plastic disposable pipets.
The packed columns were then drained of buffer and the 1 ml incubated samples were applied to each. The samples were washed into the columns with 0.5 ml of column buffer, and the exclusion volumes containing the protein peaks were eluted with another 1 ml of column buffer and collected. Aliquots of 750 μl of Biorad protein reagent were diluted 1:5 in H2 O. OD630 nm reading were compared with those obtained for a bovine serum albumin standard curve.

[1] = test system: tyrosine aminotransferase (TAT); assay: tyrosine aminotransferase (TAT) induction in HTC cells; type: cell-based, rat; conditions: Rattus norvegicus, Table 1, 24 or 48 hours, from 10^-6 M down, relative to dexamethasone = 1, read-out: Efficacy (DEX = 1) TAT
Experimental: In this example, tyrosine aminotransferase (TAT) activity was determined by a spectrophotometric assay. This enzyme catalyzes the conversion of tyrosine to p-hydroxyphenylpyruvate. This example is a standard in vitro test for glucocorticoid activity.
Addition of base caused the conversion of p-hydroxyphenylpyruvate to p-hydroxybenzaldehyde, which was quantitatively measured by absorbance at 331 nm. HTC cells, the target cells for the compound tested were grown in DMEM+10% FCS. Subconfluent cell cultures were incubated with test compounds in 6 well Costar dishes for 24 or 48 hours. The cells were incubated in either serum-free DMEM or DMEM containing 10% FCS previously filtered over activated charcoal. The cells were harvested in PBS using a rubber policeman, then washed once in PBS by centrifugation and resuspended in a 0.3 ml lysis buffer of 10 mM Tris, 10 mM EDTA and 0.25M sucrose at pH 7.4. The cells were then lysed by three cycles of freeze-thawing using dry ice and a 37° C. waterbath and the cells debris was pelleted by centrifugation for 2 min at 12,000 9 in an Eppendorf centrifuge.
The supernatant was used for a protein determination using either E+K stain or BioRad protein assay kit and TAT activity. 0.1 ml TAT buffer having 50 mM KH2 PO4, 1 mM EDTA, 0.1 mM Dithiothereitol (DTT), and 5 mg/ml BSA at pH 7.6 and 0.1 ml cell extract were mixed in glass tubes. A prewarmed mixture of 200 parts of a 2.3 mg/ml tyrosine solution in 0.05M phosphate buffer, 100 parts 0.125M KH2 PO4, 10 parts of a 0.92 mg/ml and ketoglutarate solution and 1 part of a 0.04 mg/ml pyridoxalphosphate solution had been previously made up. […] of the prewarmed mixture was added to each tube and allowed to react at 37° C. for 15 min. The addition of 0.1 ml 7N […] stopped the reaction. The mixture was then immediately vortexed.
Aldehyde formation was allowed to proceed at 37° C. for 30 min. The amound of aldehyde formed was determined by UV spectroscopic means. Absorbance was read at 331 nm using a solution composed of 0.1 ml TAT buffer, 0.1 ml lysis buffer, 0.7 ml reaction mixture and 0.1 ml 7N KOH as a blank. Optical Density values are linearily corrected for protein content.
As the absolute amount of enzyme induction varies between experiments, results are expressed as percent of the maximal induction obtained with dexamethasone, which was run as a standard in each assay.
In this series, compounds were assayed from 10^-6 M down. Results are expressed in the TAT column of tables 1, and 2 as the induction ability of a compound as compared to dexamethasone; a compound may either be a partial inducer or a superinducer.

Row | SMILES | IC50 (glucocorticoid receptor) [nM] | Emax [1] [%]
1 | CCC(=O)O[C@]1(C(=O)OC)[C@@H](C)C[C@H]2[C@@H]3CCC4=CC(=O)C=C[C@]4(C)[C@@]3(F)[C@@H](O)C[C@@]21C [compound 1] | 5 | 100
2 | CCC(=O)O[C@]1(C(=O)OC)[C@@H](C)C[C@H]2[C@@H]3CC(F)C4=C(F)C(=O)C=C[C@]4(C)[C@@]3(F)[C@@H](O)C[C@@]21C (stereo partly drawn) [compound 3] | 15 | 150
3 | CCCC(=O)O[C@]1(C(=O)OC)[C@@H](C)C[C@H]2[C@@H]3CC(F)C4=CC(=O)C=C[C@]4(C)[C@@]3(F)[C@@H](O)C[C@@]21C (stereo partly drawn) [compound 4] | 0.25 | 100
4 | CCC(=O)O[C@]1(C(=O)OC)[C@H](C)C[C@H]2[C@@H]3CC(F)C4=CC(=O)C=C[C@]4(C)[C@@]3(F)[C@@H](O)C[C@@]21C (stereo partly drawn) [compound 7] | 4 | 200
5 | CCC(=O)O[C@]1(C(=O)OC)[C@H](C)C[C@H]2[C@@H]3CC(F)C4=C(F)C(=O)C=C[C@]4(C)[C@@]3(F)[C@@H](O)C[C@@]21C (stereo partly drawn) [compound 8] | 0.25 | 100
6 | CCCC(=O)O[C@]1(C(=O)OC)[C@H](C)C[C@H]2[C@@H]3CC(F)C4=CC(=O)C=C[C@]4(C)[C@@]3(F)[C@@H](O)C[C@@]21C (stereo partly drawn) [compound 9] | 0.025 | 90
